Results published in ChEMBL document CHEMBL1201862, “PubChem BioAssay data set” (2004).
Calls of active or inactive are those of the source.

Key:
[1] = target: T1, Polyadenylate-binding protein 1 (Homo sapiens, UniProt P11940); experiment: MLLE domain peptide-binding blockers, IC50 – biochemical, fluorescence polarization, FITC-PAM2 peptide, dose response (AID 602259); format: functional; details: read-out: IC50_Mean
[2] = target: T1, Polyadenylate-binding protein 1; experiment: MLLE binding blockers, Cy5 peptide tracer – biochemical, fluorescence polarization, Cy5-PAM2 peptide, secondary, miRNA deadenylation inhibitor project, dose response (AID 602260); format: functional; details: read-out: IC50_Mean
[3] = target: Luciferin 4-monooxygenase (Photinus pyralis, UniProt P08659); experiment: inhibition of purified Photinus pyralis luciferase – biochemical, luminescence, dose response (AID 1891)
Sequence of Luciferin 4-monooxygenase (P08659 whole entry): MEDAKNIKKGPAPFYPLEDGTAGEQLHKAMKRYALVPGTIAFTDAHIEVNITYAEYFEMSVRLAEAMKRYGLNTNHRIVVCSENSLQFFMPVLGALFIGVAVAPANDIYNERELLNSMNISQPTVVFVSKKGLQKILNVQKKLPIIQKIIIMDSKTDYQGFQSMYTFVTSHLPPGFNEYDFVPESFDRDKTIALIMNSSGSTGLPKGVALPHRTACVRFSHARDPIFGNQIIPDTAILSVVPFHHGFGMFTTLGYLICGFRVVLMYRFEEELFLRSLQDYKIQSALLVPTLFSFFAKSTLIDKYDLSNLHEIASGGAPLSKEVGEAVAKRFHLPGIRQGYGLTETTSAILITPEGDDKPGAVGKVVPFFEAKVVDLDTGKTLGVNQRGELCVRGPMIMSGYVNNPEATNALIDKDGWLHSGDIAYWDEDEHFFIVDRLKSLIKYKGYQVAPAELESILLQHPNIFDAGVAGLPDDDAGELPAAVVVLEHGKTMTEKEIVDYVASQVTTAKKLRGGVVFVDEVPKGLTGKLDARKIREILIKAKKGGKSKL

[4] = Luminescence Cell-Based Dose Confirmation HTS to Identify Inhibitors of Platelet Dense Granule Release. [Related pubchem assays: 1663 (Primary HTS), 1678 (Summary of Project)]; format: functional
[5] = viability of uninfected HEp-2 cells – cell-based, HTS, cytotoxicity control for RSV inhibitor project, dose response (AID 2410); format: functional; details: human respiratory syncytial virus
H9c2 = experiment: cells; format: functional, cell-based; details: Rattus norvegicus, H9c2, Myocardium;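 further: confirmatory concentration-response retest of ultra-high-throughput screening hits for modulation of myocardial damage; cell death induced by hydrogen peroxide oxidative stress; compound pretreatment for 60 min then peroxide exposure for 2 h; potency is for protecting the cells against peroxide damage rather than for killing them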
[6] = target: T2, Rac GTPase-activating protein 1 (Homo sapiens, UniProt Q9H0H5); experiment: blockers of MgcRacGAP-driven Rac1 GTP hydrolysis – biochemical, ADP Hunter fluorescence, primary and confirmatory, confirmation (AID 624330); format: functional
T2 sequence (Q9H0H5 whole entry): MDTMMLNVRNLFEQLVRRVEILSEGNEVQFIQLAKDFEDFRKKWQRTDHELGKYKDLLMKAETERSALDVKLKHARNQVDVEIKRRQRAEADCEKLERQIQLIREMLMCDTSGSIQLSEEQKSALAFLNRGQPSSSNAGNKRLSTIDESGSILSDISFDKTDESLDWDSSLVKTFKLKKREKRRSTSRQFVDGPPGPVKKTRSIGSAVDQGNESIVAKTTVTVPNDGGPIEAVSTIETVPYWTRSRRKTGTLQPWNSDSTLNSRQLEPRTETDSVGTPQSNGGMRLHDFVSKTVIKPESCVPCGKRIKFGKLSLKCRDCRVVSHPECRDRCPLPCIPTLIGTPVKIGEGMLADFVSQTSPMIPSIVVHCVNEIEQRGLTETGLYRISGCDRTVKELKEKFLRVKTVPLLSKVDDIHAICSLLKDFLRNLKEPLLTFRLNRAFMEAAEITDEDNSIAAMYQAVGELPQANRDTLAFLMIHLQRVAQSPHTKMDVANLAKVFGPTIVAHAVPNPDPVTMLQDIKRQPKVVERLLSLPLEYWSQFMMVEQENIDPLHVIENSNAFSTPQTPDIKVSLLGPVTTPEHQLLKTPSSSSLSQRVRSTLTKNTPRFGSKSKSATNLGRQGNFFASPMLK

Protein RecA = target: T3, Protein RecA (Mycobacterium tuberculosis, UniProt P9WHJ3); experiment: Fluorescence Cell-Free Homogeneous Dose Retest to Identify Inhibitors of RecA-Intein Splicing Activity. [Related pubchem assays (depositor defined):AID2097, AID2223, AID489010, AID492950]; format: functional
T3 sequence (P9WHJ3 whole entry): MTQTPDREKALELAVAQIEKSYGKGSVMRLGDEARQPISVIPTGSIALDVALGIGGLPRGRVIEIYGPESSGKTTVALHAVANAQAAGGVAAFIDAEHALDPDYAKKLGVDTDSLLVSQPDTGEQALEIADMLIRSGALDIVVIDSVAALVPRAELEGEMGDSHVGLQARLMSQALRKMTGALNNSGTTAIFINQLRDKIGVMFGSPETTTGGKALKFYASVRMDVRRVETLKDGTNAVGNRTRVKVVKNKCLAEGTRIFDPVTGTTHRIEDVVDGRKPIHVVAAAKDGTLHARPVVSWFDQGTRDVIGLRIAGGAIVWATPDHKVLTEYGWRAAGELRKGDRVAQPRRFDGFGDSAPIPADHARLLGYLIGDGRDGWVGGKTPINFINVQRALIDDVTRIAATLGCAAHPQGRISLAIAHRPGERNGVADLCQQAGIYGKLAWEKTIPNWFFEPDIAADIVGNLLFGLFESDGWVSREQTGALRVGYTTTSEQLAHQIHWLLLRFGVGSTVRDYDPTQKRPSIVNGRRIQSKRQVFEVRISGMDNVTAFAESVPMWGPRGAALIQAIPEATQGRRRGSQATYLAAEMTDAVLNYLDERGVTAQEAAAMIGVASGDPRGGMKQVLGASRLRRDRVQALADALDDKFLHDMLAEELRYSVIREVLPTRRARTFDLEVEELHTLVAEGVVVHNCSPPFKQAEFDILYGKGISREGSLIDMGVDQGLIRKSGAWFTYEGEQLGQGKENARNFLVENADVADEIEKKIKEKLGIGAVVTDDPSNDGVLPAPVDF

[7] = target: T4, Replicative DNA helicase DnaB (Mycobacterium tuberculosis, UniProt P9WMR3); experiment: DnaB intein splicing inhibitors, dose response, biochemical, cell-free fluorescence (AID 449749); format: functional
T4 sequence (P9WMR3 whole entry): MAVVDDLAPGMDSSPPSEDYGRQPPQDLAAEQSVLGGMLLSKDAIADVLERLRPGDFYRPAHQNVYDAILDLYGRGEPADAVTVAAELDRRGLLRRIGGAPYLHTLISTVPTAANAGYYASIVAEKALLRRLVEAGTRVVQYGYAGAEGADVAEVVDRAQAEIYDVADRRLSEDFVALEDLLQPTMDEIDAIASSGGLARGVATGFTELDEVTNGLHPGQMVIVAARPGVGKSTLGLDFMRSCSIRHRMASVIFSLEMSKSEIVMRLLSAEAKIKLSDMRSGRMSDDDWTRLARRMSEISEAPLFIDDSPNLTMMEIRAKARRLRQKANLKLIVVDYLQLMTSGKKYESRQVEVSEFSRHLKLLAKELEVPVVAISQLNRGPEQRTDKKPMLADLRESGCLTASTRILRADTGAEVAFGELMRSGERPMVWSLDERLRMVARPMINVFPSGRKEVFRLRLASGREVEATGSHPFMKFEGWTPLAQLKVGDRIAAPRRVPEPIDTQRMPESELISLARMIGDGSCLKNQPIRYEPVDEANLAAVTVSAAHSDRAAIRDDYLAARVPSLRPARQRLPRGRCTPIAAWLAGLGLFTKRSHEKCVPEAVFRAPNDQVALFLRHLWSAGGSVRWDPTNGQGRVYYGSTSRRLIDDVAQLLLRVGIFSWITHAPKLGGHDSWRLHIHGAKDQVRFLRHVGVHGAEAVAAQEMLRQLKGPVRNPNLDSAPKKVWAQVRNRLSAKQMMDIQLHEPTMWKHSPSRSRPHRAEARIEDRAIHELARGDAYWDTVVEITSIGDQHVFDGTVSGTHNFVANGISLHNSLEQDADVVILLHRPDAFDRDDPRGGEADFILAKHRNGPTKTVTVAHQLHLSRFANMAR

Paired box protein Pax-8 = Paired box protein Pax-8 (Homo sapiens, UniProt Q06710); experiment: PAX8 transcriptional activity inhibition in RMG-I – RMG-I cells, luciferase, cherry-pick, dose response (AID 687027); format: functional, cell-based;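 further: luciferase reporter driven by Pax8 target thyroperoxidase promoter measured by SteadyGlo luminescence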
Sequence of Paired box protein Pax-8 (Q06710 whole entry): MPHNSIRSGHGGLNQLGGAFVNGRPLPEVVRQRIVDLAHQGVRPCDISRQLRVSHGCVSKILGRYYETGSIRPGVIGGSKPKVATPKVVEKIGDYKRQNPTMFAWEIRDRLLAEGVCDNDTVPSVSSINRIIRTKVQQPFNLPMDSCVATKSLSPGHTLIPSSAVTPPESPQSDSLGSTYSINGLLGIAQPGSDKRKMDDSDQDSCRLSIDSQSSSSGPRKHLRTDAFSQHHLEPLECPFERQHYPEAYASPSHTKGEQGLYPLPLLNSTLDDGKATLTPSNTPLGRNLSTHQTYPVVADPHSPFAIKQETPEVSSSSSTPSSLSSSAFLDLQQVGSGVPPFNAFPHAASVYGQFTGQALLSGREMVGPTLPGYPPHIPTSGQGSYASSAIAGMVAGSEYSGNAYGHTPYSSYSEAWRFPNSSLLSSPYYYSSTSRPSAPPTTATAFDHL

Cytochrome P450 2C9 = Cytochrome P450 2C9 (Homo sapiens, UniProt P11712)
Sequence of Cytochrome P450 2C9 (P11712 whole entry): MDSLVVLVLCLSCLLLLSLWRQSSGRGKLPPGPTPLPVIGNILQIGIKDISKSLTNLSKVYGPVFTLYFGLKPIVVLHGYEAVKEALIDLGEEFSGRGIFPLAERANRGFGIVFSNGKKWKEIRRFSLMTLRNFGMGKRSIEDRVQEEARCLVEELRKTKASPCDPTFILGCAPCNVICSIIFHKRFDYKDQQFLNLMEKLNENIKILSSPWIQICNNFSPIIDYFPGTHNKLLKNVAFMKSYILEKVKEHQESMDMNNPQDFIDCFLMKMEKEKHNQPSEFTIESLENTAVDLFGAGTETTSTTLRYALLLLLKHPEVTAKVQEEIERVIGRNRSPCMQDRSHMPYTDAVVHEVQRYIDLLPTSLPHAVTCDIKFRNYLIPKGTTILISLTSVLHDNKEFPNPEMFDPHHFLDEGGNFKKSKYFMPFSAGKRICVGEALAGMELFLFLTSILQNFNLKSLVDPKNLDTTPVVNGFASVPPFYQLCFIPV

[8] = reduction of Shn3 3'UTR-driven luciferase in osteoblasts – cell-based, Clone20 osteoblasts, firefly luciferase, cherry-picked, dose response (AID 624132); format: functional;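 further: firefly luciferase luminescence from reporter carrying the Shn3 3'UTR in osteoblasts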

T1 sequence (P11940 whole entry, the tested form may be a part): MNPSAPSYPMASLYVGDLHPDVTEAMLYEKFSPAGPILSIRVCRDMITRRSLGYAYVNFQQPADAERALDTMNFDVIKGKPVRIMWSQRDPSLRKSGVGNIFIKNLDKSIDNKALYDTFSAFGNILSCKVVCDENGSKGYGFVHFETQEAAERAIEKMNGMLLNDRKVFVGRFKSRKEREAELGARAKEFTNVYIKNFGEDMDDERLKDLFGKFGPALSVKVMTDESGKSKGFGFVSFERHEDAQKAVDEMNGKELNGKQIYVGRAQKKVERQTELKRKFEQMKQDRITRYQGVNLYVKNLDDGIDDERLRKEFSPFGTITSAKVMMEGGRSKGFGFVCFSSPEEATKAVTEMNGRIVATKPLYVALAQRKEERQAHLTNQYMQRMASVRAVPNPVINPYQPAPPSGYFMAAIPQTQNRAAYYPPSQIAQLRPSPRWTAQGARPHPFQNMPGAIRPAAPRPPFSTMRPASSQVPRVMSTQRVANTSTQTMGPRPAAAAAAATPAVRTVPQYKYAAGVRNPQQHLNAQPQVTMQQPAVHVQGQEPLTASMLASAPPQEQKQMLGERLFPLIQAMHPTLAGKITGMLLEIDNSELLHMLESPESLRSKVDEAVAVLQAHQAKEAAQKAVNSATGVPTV

COc1ccc(NC(=O)CC2Sc3ncnn3C2=O)cc1 (stereo unspecified)
IC50 [1]: > 66 µM (inactive) | IC50 [2]: > 66 µM (inactive)

COc1ccc(-c2nc(C[S+]([O-])CC(=O)NC3CCCC(C)C3C)c(C)o2)cc1OC (stereo unspecified)
EC50 [3]: > 112 µM (not active) | EC50 [4]: > 112 µM (not active)

Cn1c(=O)c2c(SCc3c(F)cccc3Cl)nc(CC(C)(C)C)nc2n(C)c1=O
CC50 [5]: 30.1 µM (active)

O=C(Cc1nnc(O)c2ccccc12)NCc1ccc(Cl)cc1
EC50 [3]: > 112 µM (not active) | EC50 [4]: > 112 µM (not active) | IC50 (H9c2): > 79 µM (inactive)

Cc1ccnc(SC2CC(=O)N(c3ccc([N+](=O)[O-])cc3)C2=O)n1 (stereo unspecified)
IC50 [1]: > 66 µM (inactive) | IC50 [2]: > 66 µM (inactive)

CCO/C(O)=C1/Sc2ccccc2N=C1C
IC50 [6]: 53.5 µM (active)

O=C(CCl)Nc1ccccc1C(=O)Nc1ccc2c(c1)OCO2
EC50 [3]: > 112 µM (not active) | EC50 [4]: 27.7 µM (active) | EC50 (Protein RecA): 13 µM (active) | AC50 [7]: 64.8 µM (active)

CN(c1ccccc1)S(=O)(=O)c1cccc(NC(=O)c2cncc(Br)c2)c1
CC50 [5]: 12.4 µM (active)

C[C@@H]1CN([C@@H](C)CO)S(=O)(=O)c2ccc(C#Cc3ccccc3F)cc2O[C@H]1CN(C)CC1CCOCC1
AC50 (Paired box protein Pax-8): 10.3 µM (active)

Cc1ncoc1C(=O)Nc1ccc2c(c1)OCCO2
EC50 [3]: 34.3 µM (active) | EC50 [4]: 5.11 µM (active)

COc1cccc(OC)c1C(=O)N1CCN(Cc2ccc3c(c2)OCO3)CC1
IC50 [6]: 248 µM (active)

CCOc1cc(-c2cc(-c3ccc(N)cc3)nc(N)c2C#N)ccc1O
IC50 (H9c2): > 79 µM (inactive) | IC50 [6]: 131 µM (active)

Cc1ccc(Cn2nnc3c(O)nc(C4CCN(S(=O)(=O)c5ccccc5F)CC4)nc32)cc1
CC50 [5]: 22.2 µM (active)

COc1cccc(CN2CCN(Cc3cccc(Oc4ccccc4)c3)CC2)c1OC
IC50 [6]: 93.1 µM (active)

CN(Cc1ccc2c(c1)CCCN2C)C(=O)[C@H]1O[C@@H](n2ccc(=O)[nH]c2=O)[C@H](O)[C@@H]1O
IC50 [1]: > 66 µM (inactive) | IC50 [2]: > 66 µM (inactive)

CCOC1=C2CN(S(=O)(=O)c3ccc(C)cc3)[C@@H](c3ccccc3)C[C@H]2[C@H]2C(=O)N(c3ccccc3)C(=O)[C@H]2C1
IC50 [1]: 51 µM (inactive) | IC50 [2]: > 66 µM (inactive)

O=C(Nc1ccc(O)cc1)c1ccccc1OCc1ccccc1
IC50 [6]: 30.1 µM (active)

Cc1cc(C)n(C(=O)c2ccc(S(=O)(=O)N3CCCC3)cc2)n1
EC50 [3]: > 112 µM (not active) | EC50 [4]: > 112 µM (not active)

COc1ccc(CNC(=O)c2cc(-c3cc(C)cc(C)c3O)[nH]n2)cc1
CC50 [5]: > 50 µM (active)

COc1ccc(NC(=O)CN2C(=O)C(c3ccccc3)=NC23CCCCCC3)cc1
EC50 [3]: > 112 µM (not active) | EC50 [4]: > 112 µM (not active)

C[C@@H]1CCCCO[C@H](CN(C)S(=O)(=O)c2ccc(Cl)cc2)[C@@H](C)CN([C@@H](C)CO)C(=O)c2cc(NC(=O)CCC(F)(F)F)ccc2O1
AC50 (Paired box protein Pax-8): 3.2 µM (active)

O=C1CCC(c2ccc(-n3ccnc3)cc2)=NN1 [IMAZODAN]
EC50 [3]: > 112 µM (not active) | EC50 [4]: 1.36 µM (active) | AC50 (Cytochrome P450 2C9): 31.6 µM (inconclusive)

O=C(Nc1ccc(O)cc1)c1cc2n(n1)C(C(F)(F)F)CC(c1ccco1)N2 (stereo unspecified)
IC50 [6]: 27.7 µM (active)

CCOC(=O)NC1(C(F)(F)F)NC(=O)N(Cc2ccco2)C1=O (stereo unspecified)
EC50 [3]: > 112 µM (not active) | EC50 [4]: > 112 µM (not active)

C[C@H](CO)N1C[C@H](C)[C@H](CN(C)C(=O)NC2CCCCC2)OCCCC[C@H](C)Oc2ccc(NC(=O)Nc3ccc(C(F)(F)F)cc3)cc2C1=O
AC50 (Paired box protein Pax-8): 6.15 µM (active)

Nc1nnnn1/N=C/c1cccc(Br)c1
CC50 [5]: > 50 µM (active)

CCN(CC)CCCN1C(=O)CSC1c1ccc([N+](=O)[O-])cc1 (stereo unspecified)
IC50 [1]: > 66 µM (inactive) | IC50 [2]: > 66 µM (inactive)

CCN=C(S)NS(=O)(=O)c1ccc(C)cc1
IC50 [1]: > 66 µM (inactive) | IC50 [2]: > 66 µM (inactive)

CCOc1ccccc1N(C(=O)c1snc(C(N)=O)c1N)C(C(=O)NC1CCCC1)c1cccs1 (stereo unspecified)
IC50 [1]: > 66 µM (inactive) | IC50 [2]: > 66 µM (inactive)

O=C(CSCc1c(Cl)cccc1Cl)NCc1ccco1
EC50 [3]: > 112 µM (not active) | EC50 [4]: > 112 µM (not active)

COc1ccccc1NC(=O)C(C)NS(=O)(=O)c1ccccc1 (stereo unspecified)
EC50 [3]: > 112 µM (not active) | EC50 [4]: > 112 µM (not active)

Cc1cccc(C)c1NC(=O)CN(C)C(=O)c1cc(S(=O)(=O)N(C)C)ccc1N1CCCC1
AC50 [8]: 27.1 µM (active)

O=C1NC(=S)S/C1=C1\Sc2ccccc2N1CCCS(=O)(=O)O
IC50 [6]: 123 µM (active)

O=C(Nc1ccccc1Cl)Oc1ccc(-c2ccccc2)cc1
IC50 [6]: 11.3 µM (active)
